Measurements from ChEMBL document CHEMBL6115002, “Discovery of novel sitolactone derivative leading to PANoptosis and differentiation of acute myeloid leukemia cells” (Eur J Med Chem, 2025).
pIC50: −log10 of the molar value.

Tests used:
Type in all cases: functional, cell-based
[1] = tested on: MV4-11; assay: Antiproliferative activity against human MV4-11 cells assessed as inhibition cell proliferation incubated for 72 hrs by MTT assay; conditions: MV4-11, 72 h
[2] = Antiproliferative activity against mouse WEHI-3 cells assessed as inhibition cell proliferation incubated for 72 hrs by MTT assay; conditions: WEHI-3, 72 h
[3] = tested on: Kasumi 1; assay: Antiproliferative activity against human Kasumi 1 cells assessed as inhibition cell proliferation incubated for 72 hrs by MTT assay; conditions: Kasumi 1, 72 h

SMILES	pIC50 [1]	pIC50 [2]	pIC50 [3]
C=C1C[C@@H]2[C@@H](CC[C@]3(C)[C@@H](OC(c4ccccc4)c4ccccc4)CC[C@@H]23)OC1=O	5.33	5.45	5.54
C=C1C[C@@H]2[C@@H](CC[C@]3(C)[C@@H](OC(=O)C4CCCC4)CC[C@@H]23)OC1=O	< 4.70	4.81	< 4.70
C[C@]12CC[C@H]3OC(=O)CC[C@H]3[C@@H]1CCC2=O	< 4.00	< 4.00	< 4.00
C=C1C[C@@H]2[C@@H](CC[C@]3(C)[C@@H](O[Si](c4ccccc4)(c4ccccc4)C(C)(C)C)CC[C@@H]23)OC1=O	5.41	5.86	5.82
C=C1C[C@@H]2[C@@H](CC[C@]3(C)[C@@H](OC(=O)c4ccc(C(F)(F)F)cn4)CC[C@@H]23)OC1=O	4.85	5.09	4.82
C=C1C[C@@H]2[C@@H](CC[C@]3(C)[C@@H](OC(=O)c4ccc(-c5ccccc5)cc4)CC[C@@H]23)OC1=O	4.70	4.85	4.74
C=C1C[C@@H]2[C@@H](CC[C@]3(C)[C@@H](OS(=O)(=O)Cc4ccccc4)CC[C@@H]23)OC1=O	< 4.70	4.73	4.81
C=C1C[C@@H]2[C@@H](CC[C@]3(C)[C@@H](OS(=O)(=O)CCN4C(=O)c5ccccc5C4=O)CC[C@@H]23)OC1=O	4.81	5.04	5.11
C=C1C[C@@H]2[C@@H](CC[C@]3(C)[C@@H](OS(=O)(=O)c4cccs4)CC[C@@H]23)OC1=O	5.06	5.08	5.03
C=C1C[C@@H]2[C@@H](CC[C@]3(C)[C@@H](OS(=O)(=O)c4ccsc4C(=O)OC)CC[C@@H]23)OC1=O	< 4.70	4.74	< 4.70

Second part, led by results:

pIC50 [1]	SMILES	pIC50 [2]	pIC50 [3]
5.08	C=C1C[C@@H]2[C@@H](CC[C@]3(C)[C@@H](O[Si](C)(C)C(C)(C)C)CC[C@@H]23)OC1=O	5.63	5.43
4.98	C=C1C[C@@H]2[C@@H](CC[C@]3(C)[C@@H](O[Si](C)(C)C4CCCCC4)CC[C@@H]23)OC1=O	5.10	5.03
5.66	C=C1C[C@@H]2[C@@H](CC[C@]3(C)[C@@H](O[Si](CCC)(CCC)CCC)CC[C@@H]23)OC1=O	5.84	5.89
< 4.70	C=C1C[C@@H]2[C@@H](CC[C@]3(C)[C@@H](O[Si](C)(C)C)CC[C@@H]23)OC1=O	4.85	4.79
< 4.70	C=C1C[C@@H]2[C@@H](CC[C@]3(C)[C@@H](O[Si](OC)(OC)OC)CC[C@@H]23)OC1=O	< 4.70	< 4.70
< 4.70	C=C1C[C@@H]2[C@@H](CC[C@]3(C)[C@@H](OC=O)CC[C@@H]23)OC1=O	4.86	4.78
4.93	C=C1C[C@@H]2[C@@H](CC[C@]3(C)[C@@H](OC(C)(C)C)CC[C@@H]23)OC1=O	5.14	5.05
4.78	C=C1C[C@@H]2[C@@H](CC[C@]3(C)[C@@H](OC(=O)c4ccccn4)CC[C@@H]23)OC1=O	5.05	4.86
< 4.70	C=C1C[C@@H]2[C@@H](CC[C@]3(C)[C@@H](O[Si](C)(C)CCCCl)CC[C@@H]23)OC1=O	< 4.70	< 4.70
< 4.70	C=C1C[C@@H]2[C@@H](CC[C@]3(C)[C@@H](O[Si](C)(C)C(C)C)CC[C@@H]23)OC1=O	< 4.70	< 4.70
< 4.70	C=C1C[C@@H]2[C@@H](CC[C@]3(C)[C@@H](O)CC[C@@H]23)OC1=O	4.90	< 4.70
